This passage reports Hepatic content results from patent US20190016697A1, “CONFIGURATIONAL STEREOISOMER OF DIFETHIALONE, COMPOSITION AND RODENTICIDE BAIT COMPRISING SAME, AND METHOD FOR CONTROLLING TARGET RODENT PESTS” (priority 2015, published 2019).

The structures appear in SMILES notation. Where two headings read alike, the source gives them in different places.

The data set is classed as in vivo, Rattus norvegicus. As to conditions: about 3.4 mg difethialone per kg per os (homo/hetero 4/6, each racemic), mean of six male and female rats, daily vitamin K1. As for the experimental part: C. Extraction of Difethialone from the Liver of Rats Treated with Difethialone for the Purpose of Analysis of the Various Enantiomers of Difethialone
About 0.525 g (±0.025 g) of rat liver is weighed out accurately and placed in a 50 mL polypropylene tube. 10 mL of acetone are added and the suspension is homogenized using an Ultra-Turrax® homogenizer/disperser for a time of about 30 seconds. The homogenizer/disperser shaft is rinsed with hot water and then twice with 20 mL of acetone in a polypropylene tube. The homogenate is centrifuged for 5 minutes at a centrifugation speed of 3000 rpm (revolutions per minute). The supernatant is collected and transferred into a test tube. The sample is subjected to evaporation under a stream of nitrogen (N2) at a temperature of 40° C. so as to form a dry extract.
1 mL of acetonitrile is added to the tube containing the dry extract so as to dissolve it. The acetonitrile solution is washed twice successively with 1 mL of hexane. The lipid-free extract is dried under a stream of nitrogen (N2) at a temperature of 40° C. and is then taken up in 0.5 mL of methanol and dissolved by vortex stirring. 0.5 mL of ultra-pure (Milli-Q) water is then added. The sample is vortex-homogenized.
1 mL of dichloromethane (CH2Cl2), then 1 mL of methanol (CH3OH), then 1 mL of ultra-pure (Milli-Q) water are passed through an Oasis HLB 1 cc cartridge (WAT094225, Waters). The lipid-free liver extract (1 mL MeOH/Milli-Q H2O) containing difethialone is then loaded onto the top of the preconditioned cartridge. The liver extract penetrates through the cartridge by gravity on contact with the solid phase of the cartridge. 1 mL of washing solution formed from methanol (CH3OH) and ultra-pure water (H2O) in a 90/10 volume proportion is loaded onto the top of the cartridge. The cartridge is dried by suction under vacuum connected to the bottom of the cartridge. 1 mL of eluting solution formed from dichloromethane (CH2Cl2) and methanol (CH3OH) in a 90/10 volume proportion is then loaded onto the top of the cartridge and an eluate comprising difethialone is collected at the bottom of the cartridge. The solvent of the eluate is evaporated off under a stream of nitrogen (N2) at a temperature of 40° C. The sample is taken up in 0.5 mL of acetonitrile (NC-CH3) and the acetonitrile solution containing difethialone is filtered through a 0.2 μm filter.
The acetonitrile solution containing difethialone is analysed by high-pressure liquid chromatography on a LUX® Cellulose-3 chiral column (150×2 mm, particle size of 3 μm) (Phenomenex, Le Pecq, France) as described in point A2) above. The retention time value (t1) of the laevorotatory enantiomer of said homo-stereoisomer of difethialone according to the invention is between 7.8 minutes and 8.4 minutes (the maximum value of the peak corresponding to the […] enantiomer of said homo-stereoisomer being about 8.1 minutes, as described in FIG. 1), depending on the operating conditions, especially depending on the column temperature conditions. The retention time value (t4) of the dextrorotatory enantiomer of said homo-stereoisomer is between 13.3 minutes and 15.1 minutes (the maximum value of the peak corresponding to the […] enantiomer of said homo-stereoisomer being about 14.4 minutes), depending on the operating conditions, especially depending on the column temperature conditions. The retention time value (t3) of the dextrorotatory enantiomer of said hetero-stereoisomer of difethialone is between 11.2 minutes and 12.3 minutes (the maximum value of the peak corresponding to the dextrorotatory enantiomer of said hetero-stereoisomer being about 11.7 minutes), depending on the operating conditions, especially depending on the column temperature conditions. […]

On to `O=c1sc2ccccc2c(O)c1C1CC(c2ccc(-c3ccc(Br)cc3)cc2)Cc2ccccc21` (centres unmarked) [DFN-Hetero-dextro], for which the Hepatic content is 10589.5 ng/g (4 hours after tube-feeding); 12155.5 ng/g (9 hours after tube-feeding); 8102 ng/g (24 hours after tube-feeding); 7974.5 ng/g (48 hours after tube-feeding); 5431.5 ng/g (120 hours after tube-feeding); 3011 ng/g (168 hours after tube-feeding). Moreover, the Hepatic content (216 hours after tube-feeding) is on record as 4030.5 ng/g.

As for `O=c1sc2ccccc2c(O)c1C1CC(c2ccc(-c3ccc(Br)cc3)cc2)Cc2ccccc21` (centres unmarked) [DFN-Hetero-laevo], the Hepatic content by setting is: (4 hours after tube-feeding) 5380.5 ng/g; (9 hours after tube-feeding) 5869.5 ng/g; (24 hours after tube-feeding) 3613.5 ng/g; (48 hours after tube-feeding) 2804 ng/g; (120 hours after tube-feeding) 1211 ng/g; (168 hours after tube-feeding) 392.5 ng/g. For the setting “216 hours after tube-feeding”, this compound displayed a Hepatic content of 545 ng/g.
